US8231861B2, “Pancreatitis” (priority 2003, dated 2012)

Assays:
[1] = test system: wild type and TLR-4 knock out mice; assay: Arginine-induced acute pancreatitis in wild type and TLR-4 knock out mice; format: in vivo; conditions: for pancreatitis outcome (in words): arginine 800 mg/100 g i.p. in two halves, evaluated three days later; for MPO activity in pancreas: after arginine i.p., FIG. 10
Description: To evaluate the effect of the absence of TLR4 in another model of pancreatitis, a new mouse model was created. […] See, e.g., Tani et al., Dig. Dis. Sci. 35, 367-374 (1990). Briefly, pancreatitis was induced in wild type and TLR-4 knock out mice by injecting (i.p.) arginine at a dose of 800 mg/100 g body weight. This dose of arginine was divided in two parts, one half injected at the beginning of the experiment and the other half injected one hour later. Three days later mice were sacrificed and the parameters relating to the severity of pancreatitis were evaluated. Analysis was performed substantially as described above.

[2] = test system: wild type and TLR4−/− transgenic mice; conditions: mouse, in vivo, ip
Description: Studies were performed on wild type and TLR4−/− transgenic mice weighing about 25-30 grams. Animals were housed in cages under standard conditions at room temperature with a twelve-hour light and dark cycle. Food and drinking water were available ad libitum. Secretagogue-induced pancreatitis was elicited by the hourly (twelve times) intraperitoneal injection of caerulein (50 μg/kg). […] One hour after the final caerulein or saline injection, animals were sacrificed by CO2 asphyxia, and tissue and blood samples were rapidly prepared for study. Harvested blood was allowed to clot and then centrifuged, and serum was obtained for measurement of amylase. […]
Tissue myeloperoxidase (MPO) activity was used as a marker for the sequestration of neutrophils within the pancreas by quantitating photometrically using 3,3′,5,5′-tetramethylbenzidine as a substrate. Pancreatic edema was quantitated by measuring tissue water content and expressing it as a percentage of tissue wet weight. Serum amylase activity was quantitated as described in Singh et al., J. Clin. Invest., 108:1387-1395 (2001). The extent of pancreatic acinar cell necrosis was quantitated morphometrically by an observer who was not aware of the sample identity. […] Ten randomly chosen microscopic fields (×125) were examined for each tissue sample, and the extent of acinar cell injury/necrosis was expressed as a percentage of total acinar tissue. […]

pancreatitis outcome (in words) ([1]; TLR4 knock out mice)	MPO activity in pancreas ([1]; TLR4−/− mice)	reduction of serum amylase activity in TLR4−/− mice as compared to wild type mice ([1]; after administration of arginine i.p., FIG. 9)	MPO activity in pancreas ([1]; wild type mice)	reduction of serum amylase activity in TLR4−/− mice as compared to wild type mice [2]	Compound	pancreatitis outcome (in words) ([1]; normal (wild type) mice)
significantly milder pancreatitis	6.8±6.2	more than 2.5 fold	472±320	–	N=C(N)NCCC[C@H](N)C(=O)O [arginine]	pancreatitis that was more severe than that observed with caerulein administration
–	–	–	–	more than 1.6 fold	caerulein	–
